Results from US20140351961A1, “COMPOSITIONS AND METHODS FOR TREATMENT OF METASTATIC CANCER” (priority 2011, published 2014).
Residues, ends and D or L forms follow the SMILES beside them. *: point of attachment. Cbz = O=C(OCc1ccccc1)*

Columns and labels:
IFN-γ = assay: In vitro cross-presentation assay (IFN-γ release by B3Z cells); assay type: cell-based, mouse; conditions: Hsp25-siRNA- and control-siRNA-treated BMDC; 10 μM
AsPC1 cells = assay: MTS cytotoxicity assay, AsPC1 cells pre-treated with control or CH101; assay type: cell-based; conditions: Homo sapiens, AsPC1, highly metastatic pancreatic cell, 48 h control or CH101 pre-treatment, then 72 h drug
Protocol: FIG. 8A-B. Combining CH101 with oxaliplatm synergistieally functions to reduce the IC50 in the highly agreesive, highly metastatic pancreatic cell, AsPC1, AsPC1 cells (10^6) were plated in 96-well plates and either pre-treated with control (top panel) or CH101 (bottom panel) for 48 hrs in a 37 degree C incubator. AsPC1 cells were then treated with various doses of oxaliplatm (A) or irlootecan (B) and further incubated for 72 h. Cytotoxicity was measured using the classical MTS assay.

Panc-1 cells = assay: MTS cytotoxicity assay, Panc-1 cells pre-treated with control or CH101; assay type: cell-based; conditions: Panc-1, weakly metastatic pancreatic cell, 48 h control or CH101 pre-treatment, then 72 h drug
Protocol: FIG. 7. Combining CH101 with oxaliplatin synergistically functions to reduce the IC50 in the weakly metastatic pancreatic cell Panc-1. Panc-1 cells (10^6) were plated in 96-well plates and either pre-treated with control (top panel) or CH101 (bottom panel) for 48 h in a 37 degree C incubator. Panc-1 cells were then treated with various doses of oxaliplatm and further incubated for 72 hours. Cytotoxicity was measured using the classical MTS assay.

[1] = test system: MDA-MB-231, AsPC1, MCF7, Panc-1; assay: CH101 against highly metastatic versus non- or weakly metastatic cancers; assay type: cell-based; conditions: MDA-MB-231 and AsPC1 versus MCF7 and Panc-1

In the case of `CC(C)C[C@@H](C=O)NC(=O)[C@H](CC(C)C)NC(=O)[C@H](CC(C)C)NC(=O)OCc1ccccc1` [MG-132] (Cbz-Leu-Leu-Leu-aldehyde), the “IFN-γ released by B3Z cells after proteasome inhibitor pre-treatment” value (IFN-γ) is reported as “significantly reduced the concentration of released IFN-γ”.

Work on `CCc1c2c(nc3ccc(OC(=O)N4CCC(N5CCCCC5)CC4)cc13)-c1cc3c(c(=O)n1C2)COC(=O)[C@]3(O)CC` [irinotecan] yielded an IC50 (AsPC1 cells) of 36.8 µM.

For `O=C1[O][Pt]2([NH][C@@H]3CCCC[C@H]3[NH]2)[O]C1=O` [oxaliplatin], the IC50 (Panc-1 cells) was 23 µM.

B1: CH101: cocktail of two dsRNA molecules, dsRNA SEQ ID NO:8/SEQ ID NO:9 and dsRNA SEQ ID NO:10/SEQ ID NO:11, blocking Hsp27 (nucleic acid)
chain 1: AAGGACGAGCATGGCTACATC
chain 2: GATGTAGCCATGCTCGTCCTT
chain 3: CACAGCCGCCTCTTCGATCAA
chain 4: TTGATCGAAGAGGCGGCTGTG
modifications: two duplexes cocktail, further chemistry not given here
In the case of B1, the “relative effectiveness by metastatic type of cancer” value [1] is reported as “more effective against highly metastatic cancers”.
